In ChEMBL document CHEMBL4476883, “Hydroxy formamide derivatives and their use” (2017):

Columns and labels:
[1] = Reduction in PICP levels in human cardiac fibroblasts incubated for 24 to 48 hrs by ELISA; type: functional
[2] = molecular target: T1, Bone morphogenetic protein 1 (Homo sapiens, UniProt P13497); assay: Inhibition of C-terminal FLAG-6x-His epitope tagged and N-terminal human RAGE signal sequence tagged human BMP1 (23 to 721 amino acids) expressed in CHO-E1A cells pre-incubated for 10 mins before promyostatin peptide substrate addition and measured after 60 mins using 0.5 nM BMP1 by FRET based assay; type: cell-based
T1 sequence (P13497 whole entry): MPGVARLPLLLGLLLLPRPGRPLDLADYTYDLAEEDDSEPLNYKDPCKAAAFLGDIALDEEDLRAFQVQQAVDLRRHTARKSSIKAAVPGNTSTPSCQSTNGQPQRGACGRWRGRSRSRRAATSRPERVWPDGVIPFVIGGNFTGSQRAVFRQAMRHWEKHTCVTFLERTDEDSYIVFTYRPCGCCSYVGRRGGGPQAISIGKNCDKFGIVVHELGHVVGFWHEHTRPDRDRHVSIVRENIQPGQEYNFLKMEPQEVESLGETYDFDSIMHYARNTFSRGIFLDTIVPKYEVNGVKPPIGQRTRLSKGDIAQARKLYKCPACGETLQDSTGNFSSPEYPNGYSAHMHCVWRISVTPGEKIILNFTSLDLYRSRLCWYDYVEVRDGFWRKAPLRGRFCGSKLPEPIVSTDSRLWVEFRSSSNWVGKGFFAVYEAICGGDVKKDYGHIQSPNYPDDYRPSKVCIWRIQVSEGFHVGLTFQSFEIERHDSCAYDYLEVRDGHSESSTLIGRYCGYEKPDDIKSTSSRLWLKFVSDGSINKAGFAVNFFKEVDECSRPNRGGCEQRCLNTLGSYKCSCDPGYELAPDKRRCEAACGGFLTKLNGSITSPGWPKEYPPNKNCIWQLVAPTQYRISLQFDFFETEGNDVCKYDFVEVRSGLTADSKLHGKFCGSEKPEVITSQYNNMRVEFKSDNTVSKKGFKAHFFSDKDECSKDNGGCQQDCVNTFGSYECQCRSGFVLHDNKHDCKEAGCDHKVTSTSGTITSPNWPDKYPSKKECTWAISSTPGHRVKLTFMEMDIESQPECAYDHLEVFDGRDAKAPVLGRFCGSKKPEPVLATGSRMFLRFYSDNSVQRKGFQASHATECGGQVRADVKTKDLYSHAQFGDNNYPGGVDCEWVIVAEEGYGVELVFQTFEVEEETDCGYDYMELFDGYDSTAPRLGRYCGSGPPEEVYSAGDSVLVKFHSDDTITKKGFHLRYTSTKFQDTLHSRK

[3] = molecular target: Tolloid-like protein 1 (Homo sapiens, UniProt O43897, I156V/N221S/V284A); assay: Inhibition of recombinant human TLL1 I156V/N221S/V284A mutant expressed in CHOE1A cells pre-incubated for 10 mins before promyostatin peptide substrate addition and measured after 60 mins by FRET based assay; type: cell-based
Tolloid-like protein 1, sequence (O43897 148-1013 I156V/N221S/V284A limits assumed): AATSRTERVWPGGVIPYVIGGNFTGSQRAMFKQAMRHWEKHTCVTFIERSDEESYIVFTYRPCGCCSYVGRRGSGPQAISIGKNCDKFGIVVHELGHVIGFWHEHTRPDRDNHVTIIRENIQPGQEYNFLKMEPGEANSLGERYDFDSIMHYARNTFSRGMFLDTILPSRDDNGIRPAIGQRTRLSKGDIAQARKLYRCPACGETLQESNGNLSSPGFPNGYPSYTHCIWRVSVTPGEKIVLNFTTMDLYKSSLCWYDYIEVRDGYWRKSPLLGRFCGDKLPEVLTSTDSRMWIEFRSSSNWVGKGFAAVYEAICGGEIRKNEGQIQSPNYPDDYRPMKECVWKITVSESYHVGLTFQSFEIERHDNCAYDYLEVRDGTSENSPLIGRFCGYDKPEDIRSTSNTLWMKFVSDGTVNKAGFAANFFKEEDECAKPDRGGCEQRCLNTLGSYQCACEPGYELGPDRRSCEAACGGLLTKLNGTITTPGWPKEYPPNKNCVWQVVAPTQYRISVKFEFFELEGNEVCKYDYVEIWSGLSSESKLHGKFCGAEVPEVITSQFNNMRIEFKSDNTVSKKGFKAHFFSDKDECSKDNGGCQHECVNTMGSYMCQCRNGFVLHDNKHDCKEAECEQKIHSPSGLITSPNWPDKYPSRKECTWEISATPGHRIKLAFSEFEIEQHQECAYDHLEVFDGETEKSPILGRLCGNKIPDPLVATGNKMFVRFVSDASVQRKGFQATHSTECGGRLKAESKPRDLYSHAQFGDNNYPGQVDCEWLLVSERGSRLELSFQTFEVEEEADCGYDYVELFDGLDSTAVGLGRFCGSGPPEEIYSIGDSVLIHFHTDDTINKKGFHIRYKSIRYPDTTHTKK

[4] = molecular target: T2, Tolloid-like protein 2 (Homo sapiens, UniProt Q9Y6L7); assay: Inhibition of C-terminal Avi-6x-His epitope tagged and N-terminal human RAGE signal sequence tagged recombinant human TLL2 (26 to 1015 amino acids) expressed in CHOE1A cells incubated for 60 mins with promyostatin peptide substrate by FRET based assay; type: cell-based
T2 sequence (Q9Y6L7 whole entry): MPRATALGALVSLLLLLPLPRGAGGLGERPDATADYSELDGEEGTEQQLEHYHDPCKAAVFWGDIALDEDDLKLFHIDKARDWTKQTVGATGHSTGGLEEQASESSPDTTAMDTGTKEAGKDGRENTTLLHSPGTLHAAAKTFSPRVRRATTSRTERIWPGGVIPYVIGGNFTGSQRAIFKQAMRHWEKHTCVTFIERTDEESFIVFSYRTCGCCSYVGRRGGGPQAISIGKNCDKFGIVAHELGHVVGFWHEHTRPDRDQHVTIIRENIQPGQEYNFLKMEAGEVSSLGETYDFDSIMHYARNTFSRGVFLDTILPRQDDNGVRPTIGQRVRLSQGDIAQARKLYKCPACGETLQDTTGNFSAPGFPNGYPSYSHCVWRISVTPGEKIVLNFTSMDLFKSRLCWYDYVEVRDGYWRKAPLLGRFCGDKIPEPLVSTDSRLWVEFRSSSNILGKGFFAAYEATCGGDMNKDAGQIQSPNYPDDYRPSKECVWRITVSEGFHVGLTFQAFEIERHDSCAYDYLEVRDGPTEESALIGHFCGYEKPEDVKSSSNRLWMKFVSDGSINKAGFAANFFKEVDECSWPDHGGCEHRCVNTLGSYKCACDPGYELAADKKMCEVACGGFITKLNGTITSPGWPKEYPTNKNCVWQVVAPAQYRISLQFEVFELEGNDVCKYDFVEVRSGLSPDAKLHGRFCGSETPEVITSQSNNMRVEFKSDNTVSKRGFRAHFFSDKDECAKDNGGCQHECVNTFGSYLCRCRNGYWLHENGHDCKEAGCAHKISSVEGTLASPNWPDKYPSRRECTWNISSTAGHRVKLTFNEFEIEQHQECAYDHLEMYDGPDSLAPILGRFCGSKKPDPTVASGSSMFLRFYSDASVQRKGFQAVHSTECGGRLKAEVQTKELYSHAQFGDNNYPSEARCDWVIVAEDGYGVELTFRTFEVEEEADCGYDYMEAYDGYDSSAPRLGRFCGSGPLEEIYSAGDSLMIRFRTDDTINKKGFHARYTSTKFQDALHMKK

[5] = molecular target: T1, Bone morphogenetic protein 1; assay: Inhibition of C-terminal FLAG-6x-His epitope tagged and N-terminal human RAGE signal sequence tagged human BMP1 (23 to 721 amino acids) expressed in CHO-E1A cells pre-incubated for 10 mins before promyostatin peptide substrate addition and measured after 30 mins using 50 nM BMP1 by FRET based assay; type: cell-based

Structure (SMILES)	IC50 [1] [nM]	IC50 [2] [nM]	IC50 [3] [nM]	IC50 [4] [nM]	IC50 [5] [nM]
CCCCC[C@@H](C(=O)NCNC(=O)c1cccc(-c2ccc(CC(=O)O)c(OCC)c2)n1)[C@@H](CC)N(O)C=O	< 20000	< 126	< 398	< 631	< 251
CCCCC[C@@H](C(=O)NCNC(=O)c1cccc(-c2ccc(C(=O)O)c(OCC)c2)n1)[C@@H](CC)N(O)C=O	< 20000	< 126	< 398	< 631	< 251
CCCCC[C@H](CN(O)C=O)C(=O)NCNC(=O)c1cccc(-c2ccc(F)c(OC)c2)n1	< 20000	< 126	< 398	< 631	< 251
O=CN(O)C[C@@H](CCc1ccccc1)C(=O)NCNC(=O)c1cccc(-c2ccccc2)n1	< 20000	< 126	< 398	< 631	< 251
CCCCC[C@@H](C(=O)NCNC(=O)c1cccc(-c2cc(OCC)cc(C(=O)O)c2O)n1)[C@@H](CC)N(O)C=O	< 20000	< 126	< 398	< 631	< 251
CCCCC[C@@H](C(=O)NCNC(=O)c1cncc(-c2ccc(C(=O)O)c(OCC)c2)n1)[C@@H](CC)N(O)C=O	< 20000	< 126	< 398	< 631	< 251
CCCCC[C@@H](C(=O)NCNC(=O)c1cccc(-c2ccc(C(=O)O)c(O)c2)c1)[C@@H](CC)N(O)C=O	< 20000	< 126	< 398	< 631	< 251
CCCCC[C@H](CN(O)C=O)C(=O)NCNC(=O)c1cc(C(F)(F)F)cc(-c2ccccc2)n1	< 20000	< 126	< 398	< 631	< 251
CCCCC[C@H](CN(O)C=O)C(=O)NCNC(=O)c1cccc(-c2cccnc2)n1	< 20000	< 126	< 398	< 631	< 251
CCCCC[C@@H](C(=O)NCNC(=O)c1cccc(-c2ccc(C(=O)N[C@@H](CC(=O)O)C(=O)O)c(OCC(=O)O)c2)n1)[C@@H](CC)N(O)C=O	< 20000	< 126	< 398	< 631	< 251
CCCCC[C@H](CN(O)C=O)C(=O)NCNC(=O)c1cccc(-c2ccccc2)n1	< 20000	< 126	< 398	< 631	< 251
CCCCC[C@H](CN(O)C=O)C(=O)NCNC(=O)c1cccc(-c2cccc(OC)n2)n1	< 20000	< 126	< 398	< 631	< 251
CCCCC[C@@H](C(=O)NCNC(=O)c1cccc(-c2cc(OCC)cc(C(=O)N[C@@H](CC(=O)O)C(=O)O)c2)n1)[C@@H](CC)N(O)C=O	< 20000	< 126	< 398	< 631	< 251
CCCCC[C@H](CN(O)C=O)C(=O)NCNC(=O)c1cccc(-c2cccc(OC)c2)n1	< 20000	< 126	< 398	< 631	< 251
CCCCC[C@H](CN(O)C=O)C(=O)NCNC(=O)c1cccc(-c2ccc(C(F)(F)F)cc2)n1	< 20000	< 126	< 398	< 631	< 251
CCCCC[C@@H](C(=O)NCNC(=O)c1cccc(-c2ccc(C(C)(C)C(=O)O)cc2)n1)[C@@H](CC)N(O)C=O	< 20000	< 126	< 398	< 631	< 251
CCCCC[C@H](CN(O)C=O)C(=O)NCNC(=O)c1cccc(-c2cccc(OC)c2F)n1	< 20000	< 126	< 398	< 631	< 251
CCCCC[C@@H](C(=O)NCNC(=O)c1cccc(-c2cc(C(=O)OCC)cc(S(N)(=O)=O)c2)n1)[C@@H](CC)N(O)C=O	< 20000	< 126	< 398	< 631	< 251
CCCCC[C@H](CN(O)C=O)C(=O)NCNC(=O)c1ccnc(-c2ccccc2)n1	< 20000	< 126	< 398	< 631	< 251
CCCCC[C@H](CN(O)C=O)C(=O)NCNC(=O)c1cccc(-c2ccc(F)cc2)n1	< 20000	< 126	< 398	< 631	< 251
CCCCC[C@@H](C(=O)NCNC(=O)c1cccc(-c2ccc(CC(=O)O)cc2)n1)[C@@H](CC)N(O)C=O	< 20000	< 126	< 398	< 631	< 251
CCCCC[C@@H](C(=O)NCNC(=O)c1cccc(-c2cccc(S)c2)c1)[C@@H](CC)N(O)C=O	< 20000	< 126	< 398	< 631	< 251
CCCCC[C@@H](C(=O)NCNC(=O)c1ccc(F)c(-c2ccc(C(=O)O)c(OCC)c2)n1)[C@@H](CC)N(O)C=O	< 20000	< 126	< 398	< 631	< 251
CCCCC[C@H](CN(O)C=O)C(=O)NCNC(=O)c1cccc(-c2ccc(OC(F)(F)F)cc2)n1	< 20000	< 126	< 398	< 631	< 251
CCCCC[C@H](CN(O)C=O)C(=O)NCNC(=O)c1ccc(F)c(-c2ccccc2)n1	< 20000	< 126	< 398	< 631	< 251
CCCCC[C@H](CN(O)C=O)C(=O)NCNC(=O)c1cncc(-c2ccccc2)n1	< 20000	< 126	< 398	< 631	< 251
CCCCC[C@H](CN(O)C=O)C(=O)NCNC(=O)c1cccc(-c2ccc(F)cc2F)n1	< 20000	< 126	< 398	< 631	< 251
CCCCC[C@@H](C(=O)NCNC(=O)c1cccc(-c2ccc(C(=O)N[C@@H](CC(=O)O)C(=O)O)c(OCC)c2)c1)[C@@H](CC)N(O)C=O	< 20000	< 126	< 398	< 631	< 251
